Laboratory results as given in PubChem BioAssay (NCI).
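In this assay, cells in 96-well plates receive the compound at five concentrations for 48 hours. Endpoints are linearly interpolated between the surrounding concentrations. Here, GI50 denotes the concentration required for 50% inhibition of growth. TGI denotes the concentration required for complete inhibition of growth.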

Legend:
Test in all cases: inhibition of tumour cell growth, NCI panel, 48 h
786-0 renal = system: 786-0 renal
A498 renal = system: A498 renal
A549 NSCLC = system: A549 NSCLC
ACHN renal = system: ACHN renal
BT-549 breast = system: BT-549 breast
CCRF-CEM leukemia = system: CCRF-CEM leukemia
COLO 205 colon = system: COLO 205 colon
DU-145 prostate = system: DU-145 prostate
EKVX NSCLC = system: EKVX NSCLC
HCC-2998 colon = system: HCC-2998 colon
HCT-116 colon = system: HCT-116 colon
HCT-15 colon = system: HCT-15 colon
HL-60(TB) leukemia = system: HL-60(TB) leukemia
HOP-62 NSCLC = system: HOP-62 NSCLC
HOP-92 NSCLC = system: HOP-92 NSCLC
HS 578T breast = system: HS 578T breast
HT29 colon = system: HT29 colon
IGROV1 ovarian = system: IGROV1 ovarian
K-562 leukemia = system: K-562 leukemia
KM12 colon = system: KM12 colon
LOX IMVI melanoma = system: LOX IMVI melanoma
M14 melanoma = system: M14 melanoma
MALME-3M melanoma = system: MALME-3M melanoma
MCF7 breast = system: MCF7 breast
MDA-MB-231 breast = system: MDA-MB-231 breast
MDA-MB-435 = system: MDA-MB-435
MOLT-4 leukemia = system: MOLT-4 leukemia
NCI-H226 lung = system: NCI-H226 lung
NCI-H23 lung = system: NCI-H23 lung
NCI-H460 lung = system: NCI-H460 lung
NCI-H522 lung = system: NCI-H522 lung
NCI/ADR-RES ovarian = system: NCI/ADR-RES ovarian
OVCAR-3 ovarian = system: OVCAR-3 ovarian
OVCAR-4 ovarian = system: OVCAR-4 ovarian
OVCAR-5 ovarian = system: OVCAR-5 ovarian
OVCAR-8 ovarian = system: OVCAR-8 ovarian
PC-3 prostate = system: PC-3 prostate
RPMI-8226 leukemia = system: RPMI-8226 leukemia
RXF 393 renal = system: RXF 393 renal
SF-268 CNS = system: SF-268 CNS
SF-295 CNS = system: SF-295 CNS
SF-539 CNS = system: SF-539 CNS
SK-MEL-2 melanoma = system: SK-MEL-2 melanoma
SK-MEL-28 melanoma = system: SK-MEL-28 melanoma
SK-MEL-5 melanoma = system: SK-MEL-5 melanoma
SK-OV-3 ovarian = system: SK-OV-3 ovarian
SN12C renal = system: SN12C renal
SNB-19 CNS = system: SNB-19 CNS
SNB-75 CNS = system: SNB-75 CNS
SR leukemia = system: SR leukemia
SW-620 colon = system: SW-620 colon
T-47D breast = system: T-47D breast
TK-10 renal = system: TK-10 renal
U251 CNS = system: U251 CNS
UACC-257 melanoma = system: UACC-257 melanoma
UACC-62 melanoma = system: UACC-62 melanoma
UO-31 renal = system: UO-31 renal

Which GI50 (786-0 renal) does the source give for `O=C(O)COc1ccc2c(=O)c3sc4c(=O)c5ccccc5c(=O)c4c3c(=O)c2c1` here?
The GI50 was 21.8 µM.

What about the TGI (786-0 renal) of the same compound?
Its TGI is 76.1 µM.

What about the GI50 (A498 renal) of the same compound?
Its GI50 is 14.7 µM.

What about the TGI (A498 renal) of the same compound?
Its TGI is 28.1 µM.

And the GI50 (A549 NSCLC)?
Its GI50 is 11.2 µM.

What about the TGI (A549 NSCLC) of the same compound?
The TGI was 26.5 µM.

What about the GI50 (ACHN renal) of the same compound?
The GI50 was 23 µM.

What about the TGI (ACHN renal) of the same compound?
Its TGI is over 100 µM.

What about the GI50 (BT-549 breast) of the same compound?
The GI50 was 6.99 µM.

What about the TGI (BT-549 breast) of the same compound?
The TGI was 21.8 µM.

What about the GI50 (CCRF-CEM leukemia) of the same compound?
The GI50 was 23.6 µM.

What about the TGI (CCRF-CEM leukemia) of the same compound?
Its TGI is 62.9 µM.

What about the GI50 (COLO 205 colon) of the same compound?
Its GI50 is 13.7 µM.

What about the TGI (COLO 205 colon) of the same compound?
Its TGI is 31.4 µM.

What about the GI50 (DU-145 prostate) of the same compound?
Its GI50 is 2.15 µM.

What about the TGI (DU-145 prostate) of the same compound?
Its TGI is 5.34 µM.

And the GI50 (EKVX NSCLC)?
Its GI50 is 16.8 µM.

What about the TGI (EKVX NSCLC) of the same compound?
The TGI was 78.8 µM.

What about the GI50 (HCC-2998 colon) of the same compound?
Its GI50 is 11.2 µM.

And the TGI (HCC-2998 colon)?
Its TGI is 26.7 µM.

And the GI50 (HCT-116 colon)?
Its GI50 is 15.7 µM.

What about the TGI (HCT-116 colon) of the same compound?
The TGI was 63.3 µM.

What about the GI50 (HCT-15 colon) of the same compound?
Its GI50 is 4.41 µM.

What about the TGI (HCT-15 colon) of the same compound?
Its TGI is 18.2 µM.

And the GI50 (HL-60(TB) leukemia)?
The GI50 was 24.1 µM.

And the TGI (HL-60(TB) leukemia)?
Its TGI is 61.3 µM.

What about the GI50 (HOP-62 NSCLC) of the same compound?
The GI50 was 8.03 µM.

And the TGI (HOP-62 NSCLC)?
Its TGI is 22.4 µM.

What about the GI50 (HOP-92 NSCLC) of the same compound?
The GI50 was 18.9 µM.

And the TGI (HOP-92 NSCLC)?
The TGI was 43.2 µM.

What about the GI50 (HS 578T breast) of the same compound?
The GI50 was 3.4 µM.

What about the TGI (HS 578T breast) of the same compound?
The TGI was 19.2 µM.

What about the GI50 (HT29 colon) of the same compound?
The GI50 was 22 µM.

What about the TGI (HT29 colon) of the same compound?
Its TGI is over 100 µM.

And the GI50 (IGROV1 ovarian)?
Its GI50 is 18.3 µM.

What about the TGI (IGROV1 ovarian) of the same compound?
Its TGI is 48.3 µM.

And the GI50 (K-562 leukemia)?
Its GI50 is 25.6 µM.

What about the TGI (K-562 leukemia) of the same compound?
The TGI was 95.1 µM.

And the GI50 (KM12 colon)?
The GI50 was 24.3 µM.

And the TGI (KM12 colon)?
Its TGI is over 100 µM.

What about the GI50 (LOX IMVI melanoma) of the same compound?
Its GI50 is 9.18 µM.

And the TGI (LOX IMVI melanoma)?
Its TGI is 61.1 µM.

What about the GI50 (M14 melanoma) of the same compound?
Its GI50 is 2.69 µM.

And the TGI (M14 melanoma)?
The TGI was 7.53 µM.

What about the GI50 (MALME-3M melanoma) of the same compound?
The GI50 was 2.12 µM.

What about the TGI (MALME-3M melanoma) of the same compound?
The TGI was 4.59 µM.

And the GI50 (MCF7 breast)?
The GI50 was 5.51 µM.

And the TGI (MCF7 breast)?
The TGI was 25.8 µM.

What about the GI50 (MDA-MB-231 breast) of the same compound?
Its GI50 is 17.8 µM.

And the TGI (MDA-MB-231 breast)?
The TGI was 71.7 µM.

What about the GI50 (MDA-MB-435) of the same compound?
Its GI50 is 1.78 µM.

What about the TGI (MDA-MB-435) of the same compound?
Its TGI is 3.35 µM.

What about the GI50 (MOLT-4 leukemia) of the same compound?
The GI50 was 21.5 µM.

What about the TGI (MOLT-4 leukemia) of the same compound?
Its TGI is 52.6 µM.

What about the GI50 (NCI-H226 lung) of the same compound?
Its GI50 is 15 µM.

What about the TGI (NCI-H226 lung) of the same compound?
The TGI was 41.1 µM.

And the GI50 (NCI-H23 lung)?
Its GI50 is 2.71 µM.

What about the TGI (NCI-H23 lung) of the same compound?
Its TGI is 8.57 µM.

And the GI50 (NCI-H460 lung)?
Its GI50 is 3.51 µM.

What about the TGI (NCI-H460 lung) of the same compound?
The TGI was 10.4 µM.

And the GI50 (NCI-H522 lung)?
The GI50 was 19.3 µM.

And the TGI (NCI-H522 lung)?
The TGI was 53.4 µM.

What about the GI50 (NCI/ADR-RES ovarian) of the same compound?
The GI50 was 29.9 µM.

What about the TGI (NCI/ADR-RES ovarian) of the same compound?
The TGI was over 100 µM.

What about the GI50 (OVCAR-3 ovarian) of the same compound?
Its GI50 is 13.5 µM.

And the TGI (OVCAR-3 ovarian)?
Its TGI is 33.9 µM.

What about the GI50 (OVCAR-4 ovarian) of the same compound?
Its GI50 is 14.1 µM.

What about the TGI (OVCAR-4 ovarian) of the same compound?
The TGI was 27.3 µM.

What about the GI50 (OVCAR-5 ovarian) of the same compound?
The GI50 was 17.7 µM.

And the TGI (OVCAR-5 ovarian)?
The TGI was 34.3 µM.

What about the GI50 (OVCAR-8 ovarian) of the same compound?
Its GI50 is 24.8 µM.

And the TGI (OVCAR-8 ovarian)?
Its TGI is 73.6 µM.

And the GI50 (PC-3 prostate)?
Its GI50 is 26.8 µM.

What about the TGI (PC-3 prostate) of the same compound?
The TGI was over 100 µM.

What about the GI50 (RPMI-8226 leukemia) of the same compound?
Its GI50 is 27.6 µM.

What about the TGI (RPMI-8226 leukemia) of the same compound?
The TGI was 77.6 µM.

And the GI50 (RXF 393 renal)?
Its GI50 is 12.6 µM.

And the TGI (RXF 393 renal)?
The TGI was 28.1 µM.

What about the GI50 (SF-268 CNS) of the same compound?
Its GI50 is 14.8 µM.

What about the TGI (SF-268 CNS) of the same compound?
Its TGI is 48.9 µM.

What about the GI50 (SF-295 CNS) of the same compound?
Its GI50 is 6.72 µM.

And the TGI (SF-295 CNS)?
Its TGI is 20.6 µM.

And the GI50 (SF-539 CNS)?
Its GI50 is 13.2 µM.

And the TGI (SF-539 CNS)?
The TGI was 26.1 µM.

What about the GI50 (SK-MEL-2 melanoma) of the same compound?
The GI50 was 19.8 µM.

What about the TGI (SK-MEL-2 melanoma) of the same compound?
The TGI was 49.3 µM.

What about the GI50 (SK-MEL-28 melanoma) of the same compound?
The GI50 was 8.19 µM.

What about the TGI (SK-MEL-28 melanoma) of the same compound?
Its TGI is 28.6 µM.

And the GI50 (SK-MEL-5 melanoma)?
Its GI50 is 1.75 µM.

And the TGI (SK-MEL-5 melanoma)?
Its TGI is 3.35 µM.

And the GI50 (SK-OV-3 ovarian)?
The GI50 was 16.6 µM.

What about the TGI (SK-OV-3 ovarian) of the same compound?
The TGI was 43.9 µM.

And the GI50 (SN12C renal)?
Its GI50 is 12.3 µM.

And the TGI (SN12C renal)?
The TGI was 29.8 µM.

And the GI50 (SNB-19 CNS)?
Its GI50 is 7.51 µM.

What about the TGI (SNB-19 CNS) of the same compound?
The TGI was 23.7 µM.

And the GI50 (SNB-75 CNS)?
The GI50 was 2.06 µM.

And the TGI (SNB-75 CNS)?
The TGI was 11.7 µM.

What about the GI50 (SR leukemia) of the same compound?
Its GI50 is 32.8 µM.

What about the TGI (SR leukemia) of the same compound?
The TGI was over 100 µM.

And the GI50 (SW-620 colon)?
The GI50 was 11.4 µM.

What about the TGI (SW-620 colon) of the same compound?
Its TGI is 28.6 µM.

And the GI50 (T-47D breast)?
The GI50 was 21.4 µM.

And the TGI (T-47D breast)?
The TGI was 50.9 µM.

And the GI50 (TK-10 renal)?
Its GI50 is 23 µM.

And the TGI (TK-10 renal)?
The TGI was 46.5 µM.

What about the GI50 (U251 CNS) of the same compound?
The GI50 was 13.7 µM.

And the TGI (U251 CNS)?
Its TGI is 32.8 µM.

And the GI50 (UACC-257 melanoma)?
Its GI50 is 16.2 µM.

What about the TGI (UACC-257 melanoma) of the same compound?
Its TGI is 34.7 µM.

What about the GI50 (UACC-62 melanoma) of the same compound?
The GI50 was 12 µM.

And the TGI (UACC-62 melanoma)?
The TGI was 39.4 µM.

And the GI50 (UO-31 renal)?
Its GI50 is 11.8 µM.

What about the TGI (UO-31 renal) of the same compound?
Its TGI is 30.1 µM.
